Results published in PubChem BioAssay (NCI).
Values joined by “and” are separate entries in the source; they are usually repeats but may differ in a detail not shown here. Equal entries are not always repeated.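 Dose response: 5 concentrations. Exposure: 48 h. Format: 96-well plates. Endpoint: linear interpolation; highest concentration if not reached. GI50 marks 50% less growth. At the TGI there is no net growth.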

Key:
Assay in all cases: growth of human tumour cells (NCI), 48 h
[1] = system: A498 renal
[2] = system: HL-60(TB) leukemia
[3] = system: HOP-62 NSCLC
[4] = system: HOP-92 NSCLC
[5] = system: NCI-H460 lung
[6] = system: NCI-H522 lung
[7] = system: SF-539 CNS
[8] = system: SK-MEL-28 melanoma
[9] = system: UACC-62 melanoma
[10] = system: UO-31 renal

Row | Compound | GI50 [1] | TGI [1] | GI50 [2] | TGI [2] | GI50 [3] | TGI [3] | GI50 [4] | TGI [4] | GI50 [5] | TGI [5] | GI50 [6] | TGI [6] | GI50 [7] | TGI [7] | GI50 [8] | TGI [8] | GI50 [9] | TGI [9] | GI50 [10] | TGI [10]
1 | CC12CCC(O)CC1=CCC1C2CCC2(C)C(c3cccnc3)=CCC12 (stereo not given) | > 100 µM | > 100 µM | > 100 µM | > 100 µM | > 100 µM | > 100 µM | 43 µM | > 100 µM | > 100 µM | > 100 µM | > 100 µM | > 100 µM | > 100 µM | > 100 µM | > 100 µM | > 100 µM | > 100 µM | > 100 µM | > 100 µM | > 100 µM
2 | O=C(c1ccccc1O)c1[nH]c(Cl)c(Cl)c1-n1c(C(=O)c2ccccc2O)cc(Cl)c1Cl | 0.231 µM and 0.332 µM | 2.04 µM and 2.75 µM | 1.19 µM and 0.432 µM | 5.48 µM and 3.58 µM | 2.14 µM and 3.49 µM | 6.49 µM and 17.2 µM | 0.224 µM and 0.155 µM | 0.94 µM and 0.587 µM | 0.456 µM and 0.427 µM | 11.2 µM and 10.2 µM | 0.317 µM and 0.363 µM | 1.4 µM and 7.68 µM | 1.67 µM and 1.74 µM | 10.1 µM and 10.9 µM | 0.844 µM and 0.529 µM | 12.3 µM and 11.3 µM | 0.495 µM and 0.361 µM | 3.34 µM and 2.09 µM | 2.6 µM and 2.02 µM | 11.4 µM and 6.95 µM
3 | Cc1ccc(C)c2c(N=Nc3ccccc3[N+](=O)[O-])c(O)[nH]c12 | – | > 100 µM | – | > 100 µM | – | > 100 µM | – | > 100 µM | – | > 100 µM | – | > 100 µM | – | > 100 µM | – | > 100 µM | – | > 100 µM | – | > 100 µM
4 | Cc1ccc(S(=O)(=O)SCc2ccccc2)cc1 | – | > 100 µM | – | 5.76 µM | – | > 79.3 µM | – | 60.9 µM | – | > 69.5 µM | – | 20.9 µM | – | 45.7 µM | – | > 100 µM | – | > 67.9 µM | – | > 100 µM
5 | Clc1ccc(C2=NOC3C4CCC(C4)C23)cc1 (stereo not given) | – | > 100 µM | – | > 100 µM | – | > 100 µM | – | > 100 µM | – | > 100 µM | – | > 100 µM | – | > 100 µM | – | > 100 µM | – | > 100 µM | – | > 100 µM
6 | CCCC#CCOC(=O)c1cc([N+](=O)[O-])cc([N+](=O)[O-])c1 | – | > 100 µM | – | > 100 µM | – | > 100 µM | – | > 100 µM | – | > 100 µM | – | > 100 µM | – | > 100 µM | – | > 100 µM | – | > 100 µM | – | > 100 µM
7 | CCCCCSC1C2C(=O)C(Br)=CC13CCNc1c(O)c4c5c(c13)=[N+]2CCC=5C=N4 (stereo not given) | 3.01 µM | 6.61 µM | 0.671 µM | 2.4 µM | 3.03 µM | 5.8 µM | 3.02 µM | 6.2 µM | 1.13 µM | 4.32 µM | 0.452 µM | 1.26 µM | 2.78 µM | 5.08 µM | 2.12 µM | 4.55 µM | 0.952 µM | 3.75 µM | 2.11 µM | 4.42 µM
8 | O=Nc1c(O)c2ccccc2c2ccccc12 | 1.6 µM | 3.07 µM | 2.47 µM | 7.97 µM | 0.768 µM | 2.41 µM | 2.32 µM | 4.57 µM | 1.06 µM | 2.49 µM | 1.26 µM | 3.58 µM | 0.379 µM | 1.6 µM | 1.68 µM | 3.07 µM | 0.99 µM | 2.37 µM | 1.35 µM | 3.3 µM
